Consider eleven compounds from US10881668B2, “Acetamide thienotriazolodiazepines and uses thereof” (Dana-Farber Cancer Institute, Inc., priority 2015, dated 2021).

Data set [1] addresses BRDT(1) (Homo sapiens (Human), UniProt Q58F21). The experiment in a line: AlphaScreen acetyl-histone binding assay, BRDT(1). As to conditions: H4K5acK8acK12acK16ac peptide. Here is the method:
(§1) The IC50 values of the compounds were determined by ALPHASCREENING assays for BRD4 and BRDT protein. NMC797 cell line is a BRD4 dependant NUT midline carcinoma line.
(§2) Acetyl-Histone Binding Assay.
(§3) Assays were performed as described previously with minor modifications from the manufacturer's protocol (PerkinElmer, USA). All reagents were diluted in 50 mM HEPES, 100 mM NaCl, 0.1% BSA, pH 7.4 supplemented with 0.05% CHAPS and allowed to equilibrate to room temperature prior to addition to plates. A 24-point 1:2 serial dilution of the ligands was prepared over the range of 150-0 μM and 4 μl transferred to low-volume 384-well plates (PROXIPLATE™-384 Plus, PerkinElmer, USA), followed by 4 μl of HIS-tagged protein (BRD4/1, 250 nM, BRD4/2 and CREBBP, 2000 nM). […] Plates were sealed and incubated for a further 30 minutes, before the addition of 4 μl of streptavidin-coated donor beads (25 μg/ml) and 4 μl nickel chelate acceptor beads (25 μg/ml) under low light conditions. Plates were foil-sealed to protect from light, incubated at room temperature for 60 minutes and read on a PHERASTAR FS plate reader (BMG Labtech, Germany) using an ALPHASCREEN 680 excitation/570 emission filter set. IC50 values were calculated in Prism 5 ([…] Software, USA) after normalization against corresponding DMSO controls and are given as the final concentration of compound in the 20 μl reaction volume.

In data set [2] the test system is NMC797 cell line (BRD4 dependant NUT midline carcinoma line). The data set is described as follows: Cell proliferation assay (ATP content), NMC797. The class given is cell-based. To be noted: 48-hour incubation. Here is the method: as §1
Cell Proliferation Assay.
Cells were seeded into white, 384-well microtiter plates (Nunc) at 500 cells per well in a total volume of 50 μL media. The 797, TT, and TE10 cells were grown in DMEM containing 1% penicillin/streptomycin and 10% FBS. The Per403 cells were grown in DMEM containing 1% penicillin/streptomycin and 20% FBS. Compounds were delivered to microtiter assay plates by robotic pin transfer (PerkinElmer JANUS equipped with a V&P Scientific 100 nL pin tool). Following a 48-hour incubation at 37° C., cells were lysed and wells were assessed for total ATP content using a commercial proliferation assay (Cell TITERGLO; Promega). Replicate measurements were analyzed with respect to dose and estimates of IC50 were calculated by logistic regression ([…] PRISM).

For data set [3] the following is noted: male, CD1, mouse, in vivo.
Experimental: (§4) Pharmacokinetic parameters were determined by administration of a candidate bromodomain inhibitor to male CD1 mice. Intravenous doses were delivered at 5 mg/kg, and oral doses at 10 mg/kg (N=3). […] The compound concentration in mouse blood was monitored over 24-hour time period to check the compound concentration in blood at 5 min, 30 min, 1 hour, 2 hours, 6 hours, 12 hours, and 24 hour via a series bleeding.
A short description of data set [4]: in vivo. To be noted: male, CD1, mouse, iv, 1 mg/kg.
Experimental: as §4
Data set [5] is described as follows: Pharmacokinetics in male CD1 mice, IV administration. As to conditions: whole blood; for AUC(0-inf) / AUC(0-t) / MRT inf / Vd / clearance / half-life: male, CD1, mouse, iv, 5 mg/kg.
Experimental: as §4
Data set [6] is described as follows: Pharmacokinetics in male CD1 mice, oral administration. As to conditions: for F: oral 10 mg/kg (IV 5 mg/kg).
Experimental: as §4
Data set [7] deals with BRD4(1) (Homo sapiens (Human), UniProt O60885). The experiment in a line: AlphaScreen acetyl-histone binding assay, BRD4(1). To be noted: H4K5acK8acK12acK16ac peptide. Here is the method:
as §1, §2, §3
(In Alpha technology, singlet oxygen from a donor bead excites a nearby acceptor bead.)

The mark [8] stands for this setting: male, CD1, mouse, whole blood, po, 10 mg/kg.
Where [9] appears, read: male CD1 mice, oral 10 mg/kg, whole blood, N=3.

Where two headings read alike, the source gives them in different places.

As a reminder, the IC50 is the concentration at which inhibition is half-maximal. Low readings indicate greater potency, high ones weaker potency. On to `Cc1sc2c(c1C)C(c1ccc(Cl)cc1)=N[C@@H](CC(=O)NCCC(F)F)c1nnc(C)n1-2` [Compound 505], for which the IC50 in data set [1] amounted to 75 nM; in data set [2] (NMC-797, NMC797 cells), 93 nM.

For orientation: half-life means the time needed for the level to fall by half in the phase considered. High values mean slow decline, low ones rapid decline. Compound `Cc1sc2c(c1C)C(c1ccc(Cl)cc1)=N[C@@H](CC(=O)NCCCN1CCCC1)c1nnc(C)n1-2` [Compound 604] came in with a F in data set [3] of 7%. This compound showed a half-life in data set [4] of 2 h.

As usually defined, the AUC(0-inf) is total exposure, with the tail of the curve extrapolated. Low readings indicate low exposure, high ones high exposure. What is called AUC(0-t) is exposure summed from dosing to a finite time, without extrapolation to infinity. As usually defined, the MRT inf is a mean duration of stay, worked out from the concentration-time curve. One may read the Vd as the apparent volume that relates the amount in the body to the concentration in plasma or blood. By clearance is commonly meant the volume of plasma or blood freed of the substance per unit of time. A lower clearance goes with a low capacity for elimination. Broadly, the Cmax is the peak of the concentration-time curve. As usually defined, the Tmax is the time at which the peak concentration occurs. In turn, `Cc1sc2c(c1C)C(c1ccc(Cl)cc1)=N[C@@H](CC(=O)NC[C@H](C)O)c1nnc(C)n1-2` [Compound 501] returned a half-inhibitory concentration (IC50) in data set [1] of 82 nM. Moreover, the IC50 in data set [2] (NMC-797, NMC797 cells) came out at 30 nM. In data set [5], this compound gave an AUC(0-inf) of 2390 ng·h/mL, an AUC(0-t) of 2380 ng·h/mL, an MRT inf of 0.718 h and a Vd of 1.54 L/kg. In data set [5], this compound had a clearance of 36.7 mL/min/kg and a half-life of 1.51 h. In addition, in data set [6] (male CD1 mice, N=3), the F was found to be 53.7%. In data set [6] (setting [8]), the AUC(0-inf) was 2570 ng·h/mL, the AUC(0-t) was found to be 2520 ng·h/mL, the Cmax was determined as 1260 ng/mL and the Tmax turned out to be 0.417 h. In addition, the half-life in data set [6] (setting [8]) is 1.54 h.

Take `Cc1sc2c(c1C)C(c1ccc(Cl)cc1)=N[C@@H](CC(=O)NCC(F)F)c1nnc(C)n1-2` [Compound 504]: the IC50 in data set [1] was 69 nM; in data set [2] (NMC-797, NMC797 cells), 54 nM.

In the case of `Cc1sc2c(c1C)C(c1ccc(Cl)cc1)=N[C@@H](CC(=O)NCCCN1CCC(N3CCCCC3)CC1)c1nnc(C)n1-2` [Compound 602], in data set [3], the F is recorded as 2%. The half-life in data set [4] was 21 h.

Compound `Cc1sc2c(c1C)C(c1ccc(Cl)cc1)=N[C@@H](CC(=O)N1CCC(N3CCCCC3)CC1)c1nnc(C)n1-2` [Compound 603] came in with a F in data set [3] of 20%. Besides, the half-life in data set [4] is 1 h.

For `Cc1sc2c(c1C)C(c1ccc(Cl)cc1)=N[C@@H](CC(=O)NCC(C)(C)O)c1nnc(C)n1-2` [Compound 503], the IC50 in data set [1] turned out to be 89 nM; in data set [7], 44 nM; in data set [2] (NMC-797, NMC797 cells), 42 nM.

Consider `Cc1sc2c(c1C)C(c1ccc(Cl)cc1)=N[C@@H](CC(=O)N1CCn3c(nnc3C(F)(F)F)C1)c1nnc(C)n1-2` [Compound 605], for which, in data set [3], the F is listed as 6%. The half-life in data set [4] was 0.5 h.

`Cc1sc2c(c1C)C(c1ccc(Cl)cc1)=N[C@@H](CC(=O)OC(C)(C)C)c1nnc(C)n1-2` [JQ1, reference compound] yielded an IC50 in data set [2] (NMC797 cells) of 21 nM. In data set [5] (male CD1 mice, IV 5 mg/kg, N=3), the AUCINF worked out at 2130 ng·h/mL, the AUClast stood at 2130 ng·h/mL, the CL was found to be 39.2 mL/min/kg and the MRTINF worked out at 0.861 h. Moreover, in data set [6] (setting [9]), the AUCINF is 2090 ng·h/mL, the AUClast came to 2040 ng·h/mL, the Cmax came out at 1180 ng/mL and the Tmax is 0.250 h.

Consider `Cc1sc2c(c1C)C(c1ccc(Cl)cc1)=N[C@@H](CC(=O)NC[C@@H](C)O)c1nnc(C)n1-2` [Compound 502], for which the IC50 in data set [1] was 61 nM. In data set [2] (NMC-797, NMC797 cells), the IC50 came out at 29 nM. In addition, in data set [5], the AUC(0-inf) is 2960 ng·h/mL, the AUC(0-t) worked out at 2940 ng·h/mL, the MRT inf was 0.882 h and the Vd was determined as 1.48 L/kg. In data set [5], this compound gave a clearance of 29.5 mL/min/kg and a half-life of 1.06 h. In data set [6] (male CD1 mice, N=3), the F was 53.4%. Further, in data set [6] (setting [8]), the AUC(0-inf) stood at 3160 ng·h/mL, the AUC(0-t) turned out to be 3100 ng·h/mL, the concentration peaked (Cmax) at 1430 ng/mL and the Tmax came to 0.5 h. This compound gave a half-life in data set [6] (setting [8]) of 1.37 h.

`Cc1sc2c(c1C)C(c1ccc(Cl)cc1)=N[C@@H](CC(=O)NCC1CCN(CCN(C)C)CC1)c1nnc(C)n1-2` [Compound 601]: the F in data set [3] is given as 4%. Further, in data set [4], the half-life is 11.7 h.
